Where two headings read alike, the source gives them in different places.
What was measured:
[1] = target: T1, Androgen receptor of prostate of rats (Rattus norvegicus, UniProt P15207); experiment: Androgen receptor binding (displacement of tritiated product P)
T1 construct: The prostates were removed, weighed and homogenized at 0° C; from tissue; host or cells: rat prostate, 105,000 g supernatant (castrated male Sprague-Dawley rats)
T1 sequence (P15207 1-902): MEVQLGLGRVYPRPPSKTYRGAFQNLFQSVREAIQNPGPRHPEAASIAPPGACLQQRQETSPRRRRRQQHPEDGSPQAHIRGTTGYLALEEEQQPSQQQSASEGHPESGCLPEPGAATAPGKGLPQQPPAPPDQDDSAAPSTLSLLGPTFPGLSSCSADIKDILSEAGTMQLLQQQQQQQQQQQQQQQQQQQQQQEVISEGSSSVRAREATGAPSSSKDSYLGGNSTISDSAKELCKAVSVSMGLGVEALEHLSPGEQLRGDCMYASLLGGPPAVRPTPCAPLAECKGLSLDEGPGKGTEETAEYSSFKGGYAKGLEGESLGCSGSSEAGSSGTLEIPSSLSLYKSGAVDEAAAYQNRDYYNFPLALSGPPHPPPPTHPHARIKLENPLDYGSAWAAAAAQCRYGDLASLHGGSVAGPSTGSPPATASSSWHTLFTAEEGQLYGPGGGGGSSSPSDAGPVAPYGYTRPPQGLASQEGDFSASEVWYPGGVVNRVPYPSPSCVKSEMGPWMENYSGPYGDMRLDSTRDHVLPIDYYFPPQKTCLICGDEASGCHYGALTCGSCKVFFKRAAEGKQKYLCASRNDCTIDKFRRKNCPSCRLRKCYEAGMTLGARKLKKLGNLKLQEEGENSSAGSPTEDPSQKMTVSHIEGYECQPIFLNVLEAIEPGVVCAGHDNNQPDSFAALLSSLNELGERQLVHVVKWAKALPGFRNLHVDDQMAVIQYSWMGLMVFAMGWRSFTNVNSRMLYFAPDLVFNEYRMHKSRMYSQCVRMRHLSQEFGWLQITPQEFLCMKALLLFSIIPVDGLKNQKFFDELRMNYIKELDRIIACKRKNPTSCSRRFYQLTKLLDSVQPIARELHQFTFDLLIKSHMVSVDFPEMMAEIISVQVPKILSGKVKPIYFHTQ
Outline: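 Male Sprague-Dawley EPOS rats of 160 to 200 g were castrated and killed 24 hours later. Prostates were homogenized at 0° C. in Tris 10 mM, 0.25M saccharose, HCl buffer at pH 7.4 (1 g tissue per 5 ml) and ultracentrifuged at 105,000 g. Cytosol was incubated with tritiated product P plus increasing cold competitor (0-1,000×10^-9 M). Bound tritium was measured by carbon-dextran adsorption. ARL was derived from the 50% inhibitory concentrations of reference and test compound.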

[2] = target: T2, Gluocorticoid receptor of thymus of rats (Rattus norvegicus, UniProt P06536); experiment: Glucocorticoid receptor binding (displacement of tritiated dexamethasone)
T2 construct: The thymus were removed and homogenized at 0° C; from tissue; host or cells: rat thymus, 105,000 g supernatant (adrenalectomized male Sprague-Dawley rats)
T2 sequence (P06536 1-795): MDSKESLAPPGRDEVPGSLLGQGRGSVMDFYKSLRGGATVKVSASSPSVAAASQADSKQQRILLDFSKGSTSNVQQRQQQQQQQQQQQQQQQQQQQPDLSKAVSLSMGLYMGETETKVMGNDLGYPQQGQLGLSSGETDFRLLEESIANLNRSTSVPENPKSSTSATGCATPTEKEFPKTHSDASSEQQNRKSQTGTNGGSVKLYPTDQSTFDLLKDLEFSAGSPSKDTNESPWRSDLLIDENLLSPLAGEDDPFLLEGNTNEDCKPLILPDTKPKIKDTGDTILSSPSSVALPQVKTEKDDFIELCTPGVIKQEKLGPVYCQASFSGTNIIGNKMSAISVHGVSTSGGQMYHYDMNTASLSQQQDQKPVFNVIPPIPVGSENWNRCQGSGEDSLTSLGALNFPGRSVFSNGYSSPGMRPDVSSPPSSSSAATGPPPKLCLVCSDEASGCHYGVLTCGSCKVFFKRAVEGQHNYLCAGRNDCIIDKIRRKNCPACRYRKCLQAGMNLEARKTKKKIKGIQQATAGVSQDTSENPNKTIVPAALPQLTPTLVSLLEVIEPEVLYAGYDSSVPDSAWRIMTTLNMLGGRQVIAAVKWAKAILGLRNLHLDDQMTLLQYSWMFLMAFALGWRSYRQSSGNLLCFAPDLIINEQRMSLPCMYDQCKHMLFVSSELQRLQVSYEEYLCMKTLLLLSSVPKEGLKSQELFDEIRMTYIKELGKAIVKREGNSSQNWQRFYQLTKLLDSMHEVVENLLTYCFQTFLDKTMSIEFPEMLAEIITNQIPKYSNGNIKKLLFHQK

[3] = system: thymocytes of surrenalectomized rats; experiment: Antiglucocorticoidal activity, incorporation of tritiated uridine in thymocytes; type: cell-based; conditions: for inhibition at 1 µM / inhibition at 0.1 µM / inhibition at 0.01 µM: Rattus norvegicus, Thymocyte; for inhibition at 0.1 µM: 5 × 10^-8 M dexamethasone + test product 10^-7 M; for inhibition at 0.01 µM: 5 × 10^-8 M dexamethasone + test product 10^-8 M; for opposition to the effect of dexamethasone on tritiated uridine incorporation (in words): with 5×10^-8 M dexamethasone
[4] = second table, incubation 24 H at 0° C.
[5] = second table, incubation 4 H at 0° C.
[6] = second table, read-out: % of inhibition of effect of Dexamethasone
[7] = 5 × 10^-8 M dexamethasone + test product 10^-6 M, read-out: % inhibition of effect of Dexamethasone
[8] = read-out: % inhibition of effect of Dexamethasone
[9] = 5 × 10^-8 M dexamethasone + test product 10^-6 M

SMILES	relative affinity of tieing (ARL), Androgen [1, 4]	relative affinity of tieing (ARL), Glucocorticoid [2, 5]	relative affinity of tieing (ARL), Glucocorticoid [2, 4]	relative affinity of tieing (ARL), Androgen ([1]; incubation 1/2H at 0° C.)	relative affinity of tieing (ARL), Androgen ([1]; incubation 24 H at 0° C.)	relative affinity of tieing (ARL), Glucocorticoid ([2]; incubation 4 H at 0° C.)	relative affinity of tieing (ARL), Glucocorticoid ([2]; incubation 24 H at 0° C.)	inhibition at 1 µM ([3]; second table, 5 × 10^-8 M dexamethasone + test product 10^-6 M, read-out: % of inhibition of effect of Dexamethasone) [%]	inhibition at 0.1 µM [3, 6] [%]	inhibition at 0.01 µM [3, 6] [%]	opposition to the effect of dexamethasone on tritiated uridine incorporation (in words) [3]	inhibition at 1 µM [3, 7] [%]	inhibition at 0.1 µM [3, 8] [%]	inhibition at 0.01 µM [3, 8] [%]	% inhibition of effect of Dexamethasone (symbol) [3, 9]	% of inhibition of effect of Dexamethasone (symbol) ([3]; second table, 5 × 10^-8 M dexamethasone + test product 10^-6 M)
CC#C[C@]1(O)CC[C@H]2[C@@H]3CCC4=CC(=O)CCC4=C3[C@@H](c3ccc([N+](C)(C)[O-])cc3)C[C@@]21C [Example 35, N-oxide of 11β-[4-(N,N-dimethylamino)-phenyl]-17α-(prop-1-ynyl)-Δ^4,9-estradiene-17β-ol-3-one]	2,2	7,8	5					50	21	4	opposed this effect					
CC#C[C@]1(OC(C)=O)CC[C@H]2[C@@H]3CCc4cc(O)ccc4[C@H]3[C@@H](c3ccc(N(C)C)cc3)C[C@@]21C [2 (17 OAc), 11β-(4-dimethylaminophenyl)-17α-(prop-1-ynyl)-17β-acetoxy-Δ^1,3,5(10) -estratriene-3-ol]				< 0,1	< 0,1	58	100						76	24	* (A dose of 10^-6 M inhibited the effect of dexamethasone totally)	
CN(C)c1ccc([C@H]2C[C@@]3(C)[C@@H](CC[C@@]3(O)C#Cc3ccccc3)[C@@H]3CCC4=CC(=O)CCC4=C32)cc1 [Example 29, 11β-[4-(N,N-dimethylamino)-phenyl]-21-phenyl-19-nor-17α-Δ^4,9-pregnadiene-20-yne-17β-ol-3-one]	0	46	94						57	18	opposed this effect					* (A dose of 10^-6 M inhibited totally the effect of dexamethasone)

Second part, led by results:

relative affinity of tieing (ARL), Androgen [1, 4]	relative affinity of tieing (ARL), Glucocorticoid [2, 5]	relative affinity of tieing (ARL), Glucocorticoid [2, 4]	relative affinity of tieing (ARL), Androgen ([1]; incubation 1/2H at 0° C.)	relative affinity of tieing (ARL), Androgen ([1]; incubation 24 H at 0° C.)	relative affinity of tieing (ARL), Glucocorticoid ([2]; incubation 4 H at 0° C.)	relative affinity of tieing (ARL), Glucocorticoid ([2]; incubation 24 H at 0° C.)	SMILES	inhibition at 1 µM ([3]; second table, 5 × 10^-8 M dexamethasone + test product 10^-6 M, read-out: % of inhibition of effect of Dexamethasone) [%]	inhibition at 0.1 µM [3, 6] [%]	inhibition at 0.01 µM [3, 6] [%]	opposition to the effect of dexamethasone on tritiated uridine incorporation (in words) [3]	inhibition at 1 µM [3, 7] [%]	inhibition at 0.1 µM [3, 8] [%]	inhibition at 0.01 µM [3, 8] [%]	% inhibition of effect of Dexamethasone (symbol) [3, 9]	% of inhibition of effect of Dexamethasone (symbol) ([3]; second table, 5 × 10^-8 M dexamethasone + test product 10^-6 M)
			< 0,1	< 0,1	14	7	CC#C[C@]1(O)CC[C@H]2[C@@H]3CCC4=CC(=O)C(C#N)(C#N)CC4=C3[C@@H](c3ccc(N(C)C)cc3)C[C@@]21C [Example 9, 2,2-dicyano-11β-(4-dimethylaminophenyl)-17α-(prop-1-ynyl)-Δ^4,9-estradiene-17β-ol-3-one]					2	1	3		
			0,5	0,4	214	255	CC#C[C@]1(O)CC[C@H]2[C@@H]3CCC4=CC(=O)[C@H](C)CC4=C3[C@@H](c3ccc(N(C)C)cc3)C[C@@]21C [5 (2α), 2α-methyl-11β-(4-dimethylaminophenyl)-17α-(prop-1-ynyl)-Δ^4,9-estradiene-17β-ol-3-one]					100	57	19		
			0,7	0,5	224	299	CC#C[C@]1(O)CC[C@H]2[C@@H]3CCC4=CC(=O)[C@@H](C)CC4=C3[C@@H](c3ccc(N(C)C)cc3)C[C@@]21C [5 (2β), 2-methyl-11β-(4-dimethylaminophenyl)-17α-(prop-1-ynyl)-Δ^4,9-estradiene-17β-ol-3-one]						57	10	* (A dose of 10^-6 M inhibited the effect of dexamethasone totally)	
